# Assay results from patent publication US20040038824A1, “Agrochemical composition” (priority 2000, published 2004).
# System: Wheat
# Assay: Greenhouse test of the safener's protective action on wheat against herbicide damage (post-emergence tank mix)
# Type: in vivo
# Settings: 2- to 3-leaf stage, tank mix with herbicide propynyl (R)-2[4-[(5-chloro-3-fluoro-2-pyridynyl]oxy-phenoxy]propanoate, 20 days post-application
# Excerpt: Wheat seeds are sown in the greenhouse in plastic pots comprising 0.5 l of garden soil.
structure (smiles),measurement,value
"CCCCCC(C)OC(=O)COc1ccc(Cl)c2cccnc12 (stereo not shown) [safener of the formula I, 1-methylhexyl (5-chloroquinolin-8-yloxy)acetate tetrahydrate]",protective action of the safener in comparison with the plants treated with the herbicide only,very effective
